Laboratory results as given in patent US10238671B2, “Hydrosoluble hydroxybisphosphonic derivatives of doxorubicin” (Atlanthera, priority 2014, dated 2019).
≈ marks a conversion by molar mass, not a printed value.

Key:
[1] = Solubility of compounds (II), (III) and (IV) compared with products (a) and (b); settings: for solubility: aqueous buffer
[2] = system: human tumor line HOS (human osteosarcoma, ATCC); assay: Orthotopic xenogeneic murine model of osteolytic osteosarcoma (paratibial injection of HOS): tumor volume and radiographic evaluation; format: in vivo, immunosuppressed mice; settings: for Bone lesions (metaphyseal fractures, alteration of cortical integrity, new formation of ectopic bone): radiographic evaluation, compared with control and other groups; for Size of extraosseous tumors in relation to control group and vector 5 and/or doxorubicin groups: 25 μmol/kg 2x/wk intraperitoneally, HOS tumor in mice; for Fractures of the tibial metaphysis: Day 27, radiography, 90% of control animals have fractures
Description: The antitumor activity of compounds (II) and (III) according to the invention was evaluated in an orthotopic, xenogeneic murine model of osteolytic osteosarcoma induced by paratibial injection of the human tumor line HOS (human osteosarcoma, ATCC) in immunosuppressed mice. The activity of the molecules according to the invention was compared with that of the two main subunits comprising them (doxorubicin and vector 5) alone or in combination. The treatments, on 10 animals per group, began the day following tumor induction and were administered intraperitoneally 1 to 2 times per week for 5 weeks. Tumor volumes were measured twice per week using a slide caliper and radiographic evaluation was carried out once per week. Tumor volume, expressed in mm^3, is calculated according to the following formula: V=(L×l^2)/2 (L and l, expressed in mm, correspond to the large length and the small length of the tumor, respectively).
The following treatment groups were thus studied, each on 10 mice: […]

[3] = Toxicity in mice (weight loss, cardiotoxicity, maximum usable dose); settings: for Dose giving similar weight loss, relative to doxorubicin alone (maximum usable dose study): mice, intravenously or intraperitoneally
[4] = 2 mg/ml solution of TRIS in water

With `COc1cccc2c1C(=O)c1c(O)c3c(c(O)c1C2=O)C[C@@](O)(/C(CO)=N/NC(=S)N/N=C/c1cccc(OCCCN(C)CCC(O)(P(=O)(O)O)P(=O)(O)O)c1)C[C@@H]3O[C@H]1C[C@H](NC(=O)CCC(=O)O)[C@H](O)[C@H](C)O1` [(b)] the “Solubility in 2 mg/ml solution of TRIS in water” value [1, 4] was “poorly soluble”, the solubility [1, 4] was roughly 1 mM (≈ 1.13 mg/mL) and the “Solubility in DPBS or water” value ([1]; DPBS or water) was “insoluble”.
With `COc1cccc2c1C(=O)c1c(O)c3c(c(O)c1C2=O)C[C@@](O)(C(=O)CO)C[C@@H]3O[C@H]1C[C@H](N)[C@H](O)[C@H](C)O1` [doxorubicin] the “Outcome after Day 27 (tumor volume)” value ([2]; after Day 27) was “had to be euthanized because of excessively large tumor volumes”, the “Bone lesions (metaphyseal fractures, alteration of cortical integrity, new formation of ectopic bone)” value (shortened to “Bone lesions”) [2] was “equivalent to those of the control group” and the Weight loss ([3]; dose 12 mg/kg (20 μmol/kg), requiring euthanasia after 2 weeks of treatment) was greater than 10%.
With `COc1cccc2c1C(=O)c1c(O)c3c(c(O)c1C2=O)C[C@@](O)(/C(CO)=N/OCC(O)(P(=O)(O)O)P(=O)(O)O)C[C@@H]3O[C@H]1C[C@H](N)[C@H](O)[C@H](C)O1` [Compound (IV)] the solubility ([1]; DPBS or water) was roughly 315 mM (≈ 240 mg/mL) and the “Dose giving similar weight loss, relative to doxorubicin alone (maximum usable dose study)” value [3] was 13 times higher.
In the case of `COc1cccc2c1C(=O)c1c(O)c3c(c(O)c1C2=O)C[C@@](O)(/C(CO)=N/NC(=S)NNCc1cccc(OCCCN(C)CCC(O)(P(=O)(O)O)P(=O)(O)O)c1)C[C@@H]3O[C@H]1C[C@H](N)[C@H](O)[C@H](C)O1` [Compound (III)], the “Size of extraosseous tumors in relation to control group and vector 5 and/or doxorubicin groups” value [2] is reported as “significantly reduce”, the “Fractures of the tibial metaphysis” value [2] is reported as “not detected in any of the mice” and the “Bone lesions” value [2] is reported as “reduce”. For the same compound, the solubility ([1]; DPBS or water) was roughly 160 mM (≈ 164 mg/mL) and the “Dose giving similar weight loss, relative to doxorubicin alone (maximum usable dose study)” value [3] was 13 times higher.
For `COc1cccc2c1C(=O)c1c(O)c3c(c(O)c1C2=O)C[C@@](O)(/C(CO)=N/NC(=S)NNC(=O)CN(CCN(CC(=O)O)CC(=O)NNC(=S)N/N=C/c1cccc(OCCCN(C)CCC(O)(P(=O)(O)O)P(=O)(O)O)c1)CC(=O)O)C[C@@H]3O[C@H]1C[C@H](N)[C@H](O)[C@H](C)O1` [Compound (II)], the “Size of extraosseous tumors in relation to control group and vector 5 and/or doxorubicin groups” value [2] was “significantly reduce”, the “Fractures of the tibial metaphysis” value [2] was “not detected in any of the mice” and the “Animals with a tumor greater than 1500 mm^3 in volume” value ([2]; Day 32, 10 mice per group) was “only one mouse”. The “Bone lesions” value [2] was “reduce”, the solubility ([1]; DPBS or water) was roughly 255 mM (≈ 354 mg/mL) and the “Signs of toxicity (very early weight loss, cardiotoxicity)” value ([3]; 20 μmol/kg (molar equivalent dose to doxorubicin 12 mg/kg)) was “do not induce these signs of toxicity”. For the same compound, the “Dose giving similar weight loss, relative to doxorubicin alone (maximum usable dose study)” value [3] was 13 times higher.
With `COc1cccc2c1C(=O)c1c(O)c3c(c(O)c1C2=O)C[C@@](O)(/C(CO)=N/NC(=S)N/N=C/c1cccc(OCCCN(C)CCC(O)(P(=O)(O)O)P(=O)(O)O)c1)C[C@@H]3O[C@H]1C[C@H](N)[C@H](O)[C@H](C)O1` [(a)] the “Solubility in 2 mg/ml solution of TRIS in water” value [1, 4] was “insoluble”, the “Solubility in DPBS or water” value ([1]; DPBS or water) was “insoluble” and the “Solubility in organic solvents” value ([1]; ethanol or dimethylsulfoxide or mixtures thereof with water) was “insoluble”. For the same compound, the “Solubility in water with organic or inorganic additives” value ([1]; water with organic additives (Tween, PEG, glycerin, glucose, TRIS) or inorganic additives (sodium carbonate or bicarbonate)) was “insoluble”.
